Laboratory results: patent US20190284129A1, “LIPID COMPOUNDS AND COMPOSITIONS AND THEIR OPTHALMIC USE” (BIOZEP AS, priority 2015, published 2019)
“And” between values parts separate entries of the source, which are not always exact repeats. Identical values can stand only once.

Assays:
Assay type in all cases: cell-based
human PPARalpha receptor = molecular target: T1, human PPARalpha receptor (Homo sapiens, UniProt Q07869); test: cellular GAL4 reporter gene assay (M1H) in HEK293 cells, PPARalpha; conditions: agonist mode; for Efficacy vs. Fenofibric Acid / Efficacy vs. GW7647: HEK293; for EC50: HEK293, GAL4 reporter
T1 construct: expressed in transfected cells; host or cells: HEK293 (DSMZ ACC 305)
T1 sequence (Q07869 239-466 limits assumed): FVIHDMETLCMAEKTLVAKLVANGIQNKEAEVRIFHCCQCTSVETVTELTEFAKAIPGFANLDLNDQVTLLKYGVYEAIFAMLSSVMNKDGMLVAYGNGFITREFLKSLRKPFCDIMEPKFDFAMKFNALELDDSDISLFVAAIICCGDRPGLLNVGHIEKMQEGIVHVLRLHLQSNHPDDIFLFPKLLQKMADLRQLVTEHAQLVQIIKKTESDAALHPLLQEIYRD
Procedure: The compounds BIZ-102 (Example 2), BIZ-103 (Example 5) and BIZ-106 were tested at the human PPARalpha receptor in a cellular GAL4 Reporter gene assay. The assay was run in agonist and antagonist mode to detect agonistic as well as antagonistic activities of the tested compounds.
Performance of the GAL4 cellular reporter assay:
Day 1: Cells were seeded in 96 well plates in plating medium (MEM with serum), incubation overnight at 37° C., 5% CO2.
Day 2: Removal of plating medium
Addition of PEI-based transfection agent
Incubation for 4-6 hours at 37° C., 5% CO2
Addition of assay medium (MEM with serum)
Addition of compounds (dilution series was generated in MEM with serum)
Incubation overnight at 37° C., 5% CO2
Day 3: Removal of assay medium (16-20 hours after compound addition)
Addition of Passive Lysis Buffer (Promega)
15 mins incubation at room temperature
Addition of luciferase buffers and measurement in a dual-flash procedure
(§1) The assays were done in HEK293 cells (DSMZ ACC 305). The plasmids used in the GAL4 assay system were derivatives of Stratagene's M2H plasmids: the reporter plasmid pFR-Luc (containing a synthetic promoter with five tandem repeats of the yeast GAL4 binding sites that control expression of the Photinus pyralis (American firefly) luciferase gene), and pCMV-BD (for fusions of nuclear receptor ligand binding domains to the DNA-binding domain of the yeast protein GAL4). In order to improve experimental accuracy, a second reporter—Renilla reniformis luciferase, driven by a constitutive promoter—was included as an internal control. Using the control reporter (Renilla Luciferase) allowed corrections for variations in experimental handling, e.g. transfection efficacy, cell viability, pipetting errors, cell lysis efficiency and assay efficiency.
Primary read out of the assays was loaded into PhAST (Phenex Assay and Screening Tool) and checked for assay quality (generation of SB and Zprime values). […] Within PhAST there are two measured and one calculated data layers:
LAYER1 (measured)—contains the activity values of the firefly luciferase activities and is a direct measure for modulation of the cofactor binding properties of the Nuclear Receptors by the tested compounds.
LAYER2 (measured)—contains the activity values of the renilla luciferase activities and is used as normalisation layer. As the renilla luciferase is expressed under control of the constitutively active CMV promoter, moderate well-to-well differences can be used to correct for variations in experimental handling.
LAYER3 (calculated)—is calculated according to the following equation: […]
1000*Firefly luciferase value/Renilla luciferase value
These normalised values are, as well as LAYER1, a measure for the modulation of the cofactor binding properties of the nuclear receptors by the tested compounds.

human PPARbeta/delta = molecular target: T2, human PPARbeta/delta (Homo sapiens, UniProt Q03181); test: cellular GAL4 reporter gene assay, agonist mode, PPARbeta/delta
T2 construct: expressed in transfected cells; host or cells: HEK293 (DSMZ ACC 305)
T2 sequence (Q03181 211-439 limits assumed): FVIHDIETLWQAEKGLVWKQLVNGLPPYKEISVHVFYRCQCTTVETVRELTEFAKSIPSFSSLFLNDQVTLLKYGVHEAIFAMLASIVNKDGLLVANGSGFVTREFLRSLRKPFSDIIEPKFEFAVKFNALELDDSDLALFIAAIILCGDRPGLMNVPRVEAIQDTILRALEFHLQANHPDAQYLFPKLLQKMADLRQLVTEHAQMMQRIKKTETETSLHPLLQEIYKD
Source text: as §1, with “M2H” left out, “reporter-Renilla” for “reporter—Renilla”, “promoter-was” for “promoter—was”, “efficiency. […] The compounds BIZ-102 and BIZ-103 were tested at the human PPARbeta/delta and PPARgamma receptors using the same cellular GAL4 Reporter gene assays as in Example 6. The assays were run in agonist mode to detect agonistic activities of the tested compounds.” for “efficiency.”

human PPARgamma = molecular target: T3, human PPARgamma (Homo sapiens, UniProt P37231); test: cellular GAL4 reporter gene assay, agonist mode, PPARgamma
T3 construct: expressed in transfected cells; host or cells: HEK293 (DSMZ ACC 305)
T3 sequence (P37231 238-503 limits assumed): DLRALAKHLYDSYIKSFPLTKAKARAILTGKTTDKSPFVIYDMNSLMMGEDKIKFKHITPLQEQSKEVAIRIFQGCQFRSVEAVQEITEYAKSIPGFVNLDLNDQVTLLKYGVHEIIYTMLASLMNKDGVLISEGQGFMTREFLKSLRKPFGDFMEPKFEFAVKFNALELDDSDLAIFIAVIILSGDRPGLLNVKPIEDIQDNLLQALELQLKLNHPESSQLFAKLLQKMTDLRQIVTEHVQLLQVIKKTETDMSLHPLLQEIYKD
Source text: as §1, with “M2H” left out, “reporter-Renilla” for “reporter—Renilla”, “promoter-was” for “promoter—was”, “efficiency. […] The compounds BIZ-102 and BIZ-103 were tested at the human PPARbeta/delta and PPARgamma receptors using the same cellular GAL4 Reporter gene assays as in Example 6. The assays were run in agonist mode to detect agonistic activities of the tested compounds.” for “efficiency.”

NF-κB pathway = test: NF-κB luciferase reporter assay in NF-κB Reporter-HEK293 cells, TNFa stimulated; conditions: FIG. 5
Source text: The NF-κB reporter (luc)-HEK293 cell line is designed for monitoring the nuclear factor Kappa B (NF-κB) signal transduction pathways. It contains a firefly luciferase gene driven by four copies of NF-κB response element located upstream of the minimal TATA promoter. After activation by pro-inflammatory cytokines or stimulants of lymphokine receptors, endogenous NF-κB transcription factors bind to the DNA response elements, inducing transcription of the luciferase reporter gene.
NF-κB Reporter-HEK293 cells were cultured in MEM medium with 10% FBS, 1% non-essential amino acids, 1 mM Na-pyruvate, 1% Penn-strep, and 100 µg/ml of Hygromycin B.
To perform the NF-κB luciferase reporter assay, NF-κB Reporter-HEK293 cells were seeded at 40,000 cells per well into white clear-bottom 96-well microplate in 45 μl of growth medium without Hygromycin B. Cells were incubated at 37° C. and 5% CO2 overnight to allow them to recover and reattach. The following day a series of dilutions of compounds were made in assay medium (MEM medium with 0.5% FBS, 1% non-essential amino acids, 1 mM Na-pyruvate, 1% Penn-strep). The medium was removed from the wells and 45 μl of diluted compound was added to the cells. Assay medium with DMSO was added to the untreated control wells and cell-free control wells. The final concentration of DMSO was 0.25%. The cells were incubated overnight at 37° C. in CO2 incubator. […]
After treatment, cells were then lysed and a luciferase assay was performed using the ONE-Step luciferase assay system. […] Luminescence was measured using a luminometer (BioTek Synergy™ 2 microplate reader).
Reporter assays were performed in triplicate at each concentration. The luminescence intensity data were analyzed using the computer software, Graphpad Prism. In the absence of the compound, the luminescence intensity (Lt) in each data set was defined as 100%. In the absence of cells, the luminescence intensity (Lb) in each data set was defined as 0%. The percent luminescence in the presence of each compound was calculated according to the following equation: % Luminescence=(L−Lb)/(Lt−Lb), where L=the luminescence intensity in the presence of the compound, Lb=the luminescence intensity in the absence of cells, and Lt=the luminescence intensity in the absence of the compound. The values of % luminescence versus a series of compound concentrations were then plotted using non-linear regression analysis of a Sigmoidal dose-response curve generated with the equation Y=B+(T B)/1+10^((Log EC50-X)×Hill Slope), where Y=percent luminescence, B=minimum percent luminescence, T=maximum percent luminescence, X=logarithm of compound and Hill Slope=slope factor or Hill coefficient. The IC50 value was determined by the concentration causing a half-maximal percent activity.

ARPE-19 cells = test: oxidative stress (tert-butyl hydroperoxide) cytolysis assay in ARPE-19 retinal pigment epithelial cells; conditions: fenofibric acid 25 μM, BIZ-101 10 μM
Procedure: In order to evaluate the potential of BIZ-101 to protective the eye from oxidative stress damage the compound was tested in a cell based assay. Oxidative stress was induced in an ARPE-19 cell line using tert-butyl hydroperoxide at different concentrations. The cellular viability was kinetically monitored and measured by analysing the plasma membrane integrity based on the incorporation of a non-permeant and fluorescent DNA intercalating agent that selectively stain cytolytic cells with comprised plasma membranes.
(§2) The ARPE-19 cell line was seeded and cultured in DMEM-F12 medium+10% SVF for 24 hrs in a 96 well plate. Cells were pre-treated or not with either fenofibric acid (25 μM) or compound BIZ-101 (10 μM) during this 24 hr period. After 24 hrs, the different concentrations of t-butyl hydroperoxide were added in the presence of a fluorescent DNA intercalating agent for the following monitoring. Live content time-lapse imaging was performed with a sampling rate of 1 image every 2 hr over a 96 hrs period. The number of fluorescent/cytolytic cells were counted and reported during the experiment. The treatment conditions were tested in one experiment session in a triplicate format.
Fenofibric acid was used at 25 μM and was ordered from Sigma Aldrich. The day of the pre-treatment, a 25 mM stock solution of fenofibric acid was prepared in DMSO and diluted in the complete culture medium at 25 μM. 100 μL of this solution or 100 μL of complete culture medium+0.1% DMSO replaced the 100 μL of the complete culture medium already present in the well. The day of the treatment with t-butyl hydroperoxide, a 2 times concentrated solution of fenofibric acid was freshly diluted in the complete culture medium and 50 μL of this solution or 50 μL of complete culture medium+0.2% DMSO were added to the 100 μL of the culture medium already present in the well.
Compound BIZ-101 was tested at a final concentration of 10 μM. A 10 mM predilution was prepared in DMSO from a 10 mM stock solution. The 10 mM solution of BIZ 101 was diluted in the complete culture medium at 10 μM. 100 μL, of this solution or 100 μL of the complete culture medium+0.1% DMSO replaced the 100 μL, of the complete culture medium already present in the well. The day of the treatment with t-butyl hydroperoxide, a 2 times concentrated solution of BIZ 101 was freshly diluted in the complete culture medium and 50 μL of this solution or 50 μL of complete culture medium+0.2% DMSO were added to the 100 μL of the culture medium already present in the well.
Preparation of the tert-butyl hydroperoxide [tBHP] solution: 0, 0.01 mM, 0.03 mM, 0.1 mM, 0.3 mM, 1 mM, 3 mM and 10 mM. A 4 times concentrated solution of tBHP was freshly diluted in the complete culture medium for each of the concentrations to be tested. 50 μL of the 4 times concentrated solution was added to the 150 μL of the cultured medium.
In order to evaluate the potential of BIZ-102 to protect the eye from oxidative stress damage the compound was tested in a cell based assay similar to Example 24 with the following changes. The oxidative stress in the ARPE-19 cell line was induced by using 3 different concentrations of tBHP: 10 μM, 30 μM and 100 μM and BIZ-102 was tested in 2 different concentrations: 1 μM and 10 μM.
as §2, with “with” for “with either fenofibric acid (25 μM) or”, “BIZ-102 (1 μM and 10” for “BIZ-101 (10”
Compound BIZ-102 was tested at a final concentration of 1 and 10 μM. […]

Structure (SMILES) | Efficacy vs. Fenofibric Acid (human PPARalpha receptor) [%] | Efficacy vs. GW7647 (human PPARalpha receptor) [%] | EC50 (human PPARalpha receptor) | further results
CCCCCCCCCCCCCCSC(C)C(=O)O (centres unmarked) [BIZ-103] | 55 | 180 |  | EC50 (human PPARbeta/delta): 8.9 µM; PPARbeta/delta efficacy vs. GW501516 (human PPARbeta/delta): 18%; EC50 (human PPARgamma): 1600 nM; PPARgamma efficacy vs. Rosiglitazone (human PPARgamma): 20%
CC/C=C\C/C=C\C/C=C\C/C=C\C/C=C\CCCCOC(CC)C(=O)O (centres unmarked) [BIZ-110, 2-((5Z,8Z,11Z,14Z,17Z)-icosa-5,8,11,14,17-pentaen-1-yloxy) butanoic Acid] |  |  |  | dose dependence of inhibitory effect on the NF-κB pathway (NF-κB pathway): dose dependent; complete inhibition of the NF-κB pathway (NF-κB pathway; at high concentration): completely inhibited

Continued, in another order:

Efficacy vs. Fenofibric Acid (human PPARalpha receptor) [%] | Efficacy vs. GW7647 (human PPARalpha receptor) [%] | EC50 (human PPARalpha receptor) | Structure (SMILES) | further results
25 | 80 | ~5 µM and 5 µM | CC/C=C\C/C=C\C/C=C\C/C=C\C/C=C\C/C=C\CC(CC)C(=O)O (centres unmarked) [BIZ-106, 2-ethyl (4Z,7Z,10Z,13Z,16Z,19Z)-docosa-4,11,10,13,16,19-hexaenoic Acid] | 
30 | 100 | ~26 µM and 26 µM | CCCCC/C=C\C/C=C\C/C=C\C/C=C\CCCC(=O)O [BIZ-107] | 
 |  | 10 to 18 µM | CC(C)(Oc1ccc(C(=O)c2ccc(Cl)cc2)cc1)C(=O)O [fenofibric acid, reference compound] | dose dependent cytotoxicity of tBHP (ARPE-19 cells; 6 hrs after addition of tBHP, 24 hr pre-treatment): slightly decreased; protective effects against tBHP cytotoxicity (ARPE-19 cells; 24 hrs after addition of t-BHP): more efficient
